From US20070254903A1, “Novel Spiroindoline or Spiroisoquinoline Compounds, Methods of Use and Compositions Thereof” (ARENA PHARMACEUTICALS, INC., priority 2003, published 2007)

Target: T1, human Mas receptor (Homo sapiens, UniProt P04201)
T1 construct: expressed in transfected cells
T1 sequence (P04201 1-325): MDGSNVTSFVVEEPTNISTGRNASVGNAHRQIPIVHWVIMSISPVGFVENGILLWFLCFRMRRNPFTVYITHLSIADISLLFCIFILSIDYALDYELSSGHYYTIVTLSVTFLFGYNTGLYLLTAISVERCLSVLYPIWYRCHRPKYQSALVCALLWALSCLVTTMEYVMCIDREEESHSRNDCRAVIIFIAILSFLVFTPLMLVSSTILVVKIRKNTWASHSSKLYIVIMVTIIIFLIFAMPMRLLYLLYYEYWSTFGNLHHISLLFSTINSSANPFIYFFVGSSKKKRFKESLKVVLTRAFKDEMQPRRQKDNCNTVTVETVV
Test: Mas receptor IP3 assay (inverse agonist assay)
Format: cell-based
Settings: HEK293 cells over-expressing human Mas receptor; average from several experiments
Description: The Mas receptor IP3 assay was performed using a mammalian cell line (HEK293) which was transfected with a plasmid containing the human Mas receptor and selected for stable expression of the receptor. For the inverse agonist assay, higher levels of Mas receptor constitutive activity were desired. To achieve this, Mas receptor expression levels were increased by transiently transfecting the same Mas receptor stable cell line with additional human Mas receptor plasmid DNA following standard procedures. These cells were used in the Mas receptor IP3 assay approximately 24 hours post-transfection.
Cells were split into 96-well plates (50,000 cells/well) and allowed to attach for a period of 6 hours. The growth medium was then replaced with medium supplemented with 4 μCi/ml [^3H]myo-inositol (100 μl; Perkin Elmer Life Sciences) and the cells were allowed to incubate for approximately 20 hours. Test compounds were serially diluted in inositol-free media containing 10 mM LiCl. The media in the plates was removed by aspiration, replaced with these test compound solutions and incubated at 37° C. for 1 hour. Following this incubation, the media was removed by aspiration and replaced with buffer containing 0.1M formic acid. The plates were then frozen overnight at −80° C. to achieve complete cell lysis.
The following day, the assay plates were thawed at room temperature. The thawed contents were then transfered to 96-well filter plates (Millipore, Multiscreen) pre-loaded with resin (Biorad, AG1-X8 100-200 mesh, formate form). The plate was filtered using a vacuum manifold and the resin was washed multiple times with water. An elution buffer was then applied (200 μl, 0.2M Ammonium formate/0.1M formic acid) and the resulting eluent was collected, under vacuum, in a 96-well collection plate. Aliquots of the eluent (80 μl) were transferred to filter plates (Whatman, Unifilter GF/C) and dried in a 45° C. oven overnight. Dried plates were counted on a scintillation counter following the addition of an appropriate scintillant (Perkin Elmer Life Sciences, Optiphase Supermix or Hi-Safe 3).

Row | SMILES | IC50
1 | C=CCN1CCC2(CC1)CN(C(=O)c1ccc3c(c1)OCO3)c1ccc(F)cc12 [Compound 89, 1′-(allyl)-1,2-dihydro-5-fluoro-1-(benzo[1,3]dioxole-5-carbonyl)-spiro[3H-indole-3,4′-piperidine]] | 989 nM
2 | C=CCN1CCC2(CC1)CN(C(=O)c1ccc(Br)s1)c1ccc(F)cc12 [Compound 223, 1′-(allyl)-1,2-dihydro-5-fluoro-1-(5-bromo-thiophene-2-carbonyl)-spiro[3H-indole-3,4′-piperidine]] | 307 nM
